Experimental data taken from publication PMC10799935, “Discovery of a peripheral 5HT2A antagonist as a clinical candidate for metabolic dysfunction-associated steatohepatitis” (Nature Communications, 2024).
Where “and” joins values, the source holds several entries; their conditions need not be identical. Equal values may be shown once.

What was measured:
[1] = target: T1, 5HT6 (h) (Homo sapiens, UniProt P50406); assay: 5HT subtype antagonism assay (Eurofins Cerep): 5HT6; type: cell-based; conditions: concentration not given
T1 construct: host or cells: CHO cells

[2] = test system: HFD-fed C57BL/6J mice; assay: DIO mice (HFD, 8 weeks): body weight; type: in vivo, mouse; conditions: for Body weight: Predicted (LS) mean diff., Vehicle vs. 11c: Dunnett's test; for 16hr fasting B.W.: DIO C57BL/6J mice, PO; for Body weight: DIO mice, individual mice and group Mean, in g (unit assumed)
Excerpt: For in vivo efficacy in DIO models and CDAHFD models, the experimental protocol for this study was approved by the Institutional Animal Care and Use Committee (IACUC) at the Korea Advanced Institute of Science and Technology (No. KA2023-027-v2) or Kyungpook National University (No. KNU-20200134). All relevant ethical guidelines were followed. C57BL/6 J male mice (11 weeks old) were purchased from the Charles River Japan and were housed in a specific pathogen-free barrier facility under a regular light-dark cycle (12-hour light/12-hour dark) at 24°C with 40–60% humidity. Food (standard chow diet, Envigo, 2018S) and water were provided ad libitum. […] Mice were euthanized by the method of cervical dislocation. The measurement of lean and fat mass in live mice was performed by a body composition analyzer (LF50 BCA-analyzer, Bruker). After 6 h of fasting, mice were sacrificed, and tissue samples were obtained.

[3] = test system: CDAHFD-fed C57BL/6 J mice; assay: CDAHFD mice: food intake; type: in vivo, mouse; conditions: amongst CDAHFD-fed groups, 12 weeks
Excerpt: (§1) C57BL/6 J male mice were purchased from the Japan SLC. Inc (Hamamatsu, Japan). Mice (5 weeks old) were fed Teklad Certitied Irradiated Global 18% protein rodent diet purchased from Dooyeol Biotech Co. Ltd (Seoul, South Korea) during the acclimation period. The liver fibrosis/inflammation-induced groups were CDAHFD-fed (A06071302, Research diet). […] All animal experiments complied with the relevant ethical regulations.
Supplementary Figure 4. Food intake. Food intake of vehicle and CDAHFD-fed mice, two-way
ANOVA with the Holm-Sidak post hoc test. The data are presented as mean ± SD (n = 2 cages per
(1 picture or pasted object on this page, not shown here)

[4] = test system: CDAHFD-fed C57BL/6 J mice; assay: CDAHFD mice: Sirius red staining (fibrotic area);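 for Sirius red staining (fibrotic area), individual mouse: percent of liver section area positive for Sirius red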; type: in vivo, mouse; set-up: Sirius red staining (fibrotic area), individual mouse / Sirius red staining (fibrotic area), Average: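 percent of liver section area positive for Sirius red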; conditions: for Sirius red staining (fibrotic area), Average / Sirius red staining (fibrotic area), individual mouse: CDAHFD mice; for Sirius red staining (fibrotic area), Average: group average n=5, CDAHFD+Vehicle 5.533, Vehicle 0.905; for Sirius red staining (fibrotic area), individual mouse: individual animals No. 1-5 (Fig.4e)
Excerpt: as §1
Mouse liver tissues were fixed in 4% formalin solution (Sigma–Aldrich, St. Louis, MO, USA) and embedded in paraffin. 4-μm-thick liver sections were deparaffinized in xylene, and rehydrated through descending grades of ethanol. To evaluate liver fibrosis, sections were stained with Sirius red solution and subjected to immunohistochemical staining. Tissue sections, after deparaffinization, underwent a 16-hour incubation in a solution containing 0.1% Direct Red 80 (365548, Sigma-Aldrich) dissolved in Picric acid (P-201, Spectrum Chemical, CA, USA) for Sirius red staining. The sections were briefly immersed in a 0.01 N HCl solution (1129, Ducksan, Republic of Korea) for 2 min. and then rinsed with distilled water for destaining. Subsequently, the sections underwent dehydration through […] grades of ethanol. Immunohistochemical staining was performed using the Polyview Plus HRP-DAB (anti-Rabbit) Kit (ENZ-KIT159-0150, ENZO Life Science, NY, USA) following the manufacturers’ instructions. Deparaffinized sections were boiled in IHC-TekTM Epitope Retrieval solution (IW-1100, IHCWORLD, MD, USA) for 45 min., cooled for 1 h, incubated in a 3% H2O2 solution (69355-0350, JUNSEI, Japan) for 15 min., washed, and then incubated overnight with primary antibodies (α-SMA, ab5694, Abcam, 1:500 dilution; TNF-α, ab6671, Abcam, 1:100 dilution and IL-1β, ab9722, Abcam, 1:100 dilution). Subsequently, the sections were treated with Polyview Plus HRP for 2 h and developed with DAB chromogen/substrate. Stained […] sections were confirmed by light microscopy (Olympus BX53 upright microscope, Tokyo, Japan). The degree of hepatic fibrosis and immunohistochemical staining was quantified by morphometric analysis of stained liver sections using NIH ImageJ software.

[5] = in vitro; conditions: human, plasma
[6] = target: CYP2D6 (Homo sapiens, UniProt P10635); assay: in vitro
[7] = in vitro; conditions: mouse

T1 sequence (P50406 whole entry): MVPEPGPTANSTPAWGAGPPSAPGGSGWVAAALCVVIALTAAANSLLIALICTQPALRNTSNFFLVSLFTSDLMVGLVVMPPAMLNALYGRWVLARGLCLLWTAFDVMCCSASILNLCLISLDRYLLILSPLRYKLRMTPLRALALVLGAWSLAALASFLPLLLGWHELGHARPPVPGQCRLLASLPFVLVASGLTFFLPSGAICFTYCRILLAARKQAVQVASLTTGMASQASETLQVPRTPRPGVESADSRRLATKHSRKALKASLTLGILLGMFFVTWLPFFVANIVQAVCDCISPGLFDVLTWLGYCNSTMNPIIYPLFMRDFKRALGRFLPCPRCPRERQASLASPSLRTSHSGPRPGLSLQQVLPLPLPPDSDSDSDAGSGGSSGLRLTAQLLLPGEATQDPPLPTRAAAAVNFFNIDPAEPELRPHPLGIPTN
Chain of CYP2D6 (P10635 whole entry): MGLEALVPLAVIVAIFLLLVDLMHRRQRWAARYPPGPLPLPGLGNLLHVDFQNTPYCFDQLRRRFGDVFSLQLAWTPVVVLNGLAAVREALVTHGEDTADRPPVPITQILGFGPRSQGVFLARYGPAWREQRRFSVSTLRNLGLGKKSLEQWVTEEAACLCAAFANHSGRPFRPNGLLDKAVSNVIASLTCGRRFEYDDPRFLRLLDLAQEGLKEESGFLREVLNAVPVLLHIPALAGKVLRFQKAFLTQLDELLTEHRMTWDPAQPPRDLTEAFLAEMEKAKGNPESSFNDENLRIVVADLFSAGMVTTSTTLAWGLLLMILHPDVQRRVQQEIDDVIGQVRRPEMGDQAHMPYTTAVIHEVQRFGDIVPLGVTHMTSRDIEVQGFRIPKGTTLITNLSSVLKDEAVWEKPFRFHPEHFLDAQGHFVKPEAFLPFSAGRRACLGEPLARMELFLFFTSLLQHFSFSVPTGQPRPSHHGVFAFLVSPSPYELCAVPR

SMILES: Cc1nc2n(c(=O)c1CCN1CCC(=C3c4ccc(Cl)cc4CCc4cccnc43)CC1)CCCC2O (stereo not drawn) [Compound 11c]
- Selectivity 6: % inhibition [1]: 7%
- Body weight: Predicted (LS) mean diff., Vehicle vs. 11c ([2]; 5mpk, week 12): 0.7 g
- Body weight: Predicted (LS) mean diff., Vehicle vs. 11c ([2]; 5mpk, week 13): 0.6 g
- Body weight: Predicted (LS) mean diff., Vehicle vs. 11c ([2]; 5mpk, week 14): 0.7 g
- Body weight: Predicted (LS) mean diff., Vehicle vs. 11c ([2]; 5mpk, week 15): 0.6 g
- Body weight: Predicted (LS) mean diff., Vehicle vs. 11c ([2]; 5mpk, week 16): 1.1 g
- Body weight: Predicted (LS) mean diff., Vehicle vs. 11c ([2]; 5mpk, week 17): 1.7 g
- Body weight: Predicted (LS) mean diff., Vehicle vs. 11c ([2]; 5mpk, week 18): 2.1 g
- Body weight: Predicted (LS) mean diff., Vehicle vs. 11c ([2]; 5mpk, week 19): 2.7 g
- Body weight: Predicted (LS) mean diff., Vehicle vs. 11c ([2]; 5mpk, week 20): 2.7 g
- Body weight: Predicted (LS) mean diff., Vehicle vs. 11c ([2]; 5mpk, week 21): 3.4 g
- body weight gain upon HFD ([2]; 10 mpk daily oral gavage, 8 weeks, vs vehicle-treated mice): attenuated
- Body weight: Predicted (LS) mean diff., Vehicle vs. 11c ([2]; 10mpk, week 12): 0.1 g
- Body weight: Predicted (LS) mean diff., Vehicle vs. 11c ([2]; 10mpk, week 13): 0.9 g
- Body weight: Predicted (LS) mean diff., Vehicle vs. 11c ([2]; 10mpk, week 14): 1.5 g
- Body weight: Predicted (LS) mean diff., Vehicle vs. 11c ([2]; 10mpk, week 15): 1.8 g
- Body weight: Predicted (LS) mean diff., Vehicle vs. 11c ([2]; 10mpk, week 16): 3.7 g
- Body weight: Predicted (LS) mean diff., Vehicle vs. 11c ([2]; 10mpk, week 17): 6.3 g
- Body weight: Predicted (LS) mean diff., Vehicle vs. 11c ([2]; 10mpk, week 18): 7.2 g
- Body weight: Predicted (LS) mean diff., Vehicle vs. 11c ([2]; 10mpk, week 19): 7.7 g
- Body weight: Predicted (LS) mean diff., Vehicle vs. 11c ([2]; 10mpk, week 20): 7.2 g
- Body weight: Predicted (LS) mean diff., Vehicle vs. 11c ([2]; 10mpk, week 21): 7.2 g
- 16hr fasting B.W. ([2]; 5mpk, group mean): 41.2
- 16hr fasting B.W. ([2]; 5mpk, individual animals, 5 mg/kg): 43.7 and 38.6 and 37.5 and 35.1 and 41.4 and 48.5 and 43.4
- 16hr fasting B.W. ([2]; 10mpk, group mean): 36.5
- 16hr fasting B.W. ([2]; 10mpk, individual animals, 10 mg/kg): 33.5 and 41.1 and 34.8 and 42.8 and 35.7 and 31.2
- Body weight ([2]; 5mpk PO, week 12 (2021.04.26), 5 mg/kg): 25.4 and 23.4 and 24.4 and 26.8 and 26.0 and 30.2 and 25.6
- Body weight ([2]; 5mpk PO, week 13, 5 mg/kg): 29.8 and 27.5 and 28.5 and 28.2 and 28.9 and 32.0 and 29.6
- Body weight ([2]; 5mpk PO, week 13, 5 mg/kg, mean): 29.2
- Body weight ([2]; 5mpk PO, week 14, 5 mg/kg): 32.9 and 29.6 and 29.0 and 31.0 and 34.0 and 31.6
- Body weight ([2]; 5mpk PO, week 15, 5 mg/kg): 35.3 and 30.6 and 29.8 and 29.5 and 33.2 and 37.1 and 34.1
- Body weight ([2]; 5mpk PO, week 15, 5 mg/kg, mean): 32.8
- Body weight ([2]; 5mpk PO, week 16, 5 mg/kg): 37.5 and 32.7 and 32.5 and 31.1 and 35.5 and 40.4 and 36.8
- Body weight ([2]; 5mpk PO, week 16, 5 mg/kg, mean): 35.2
- Body weight ([2]; 5mpk PO, week 17, 5 mg/kg): 39.7 and 34.6 and 33.9 and 32.4 and 37.7 and 43.6 and 39.6
- Body weight ([2]; 5mpk PO, week 17, 5 mg/kg, mean): 37.4
- Body weight ([2]; 5mpk PO, week 18, 5 mg/kg): 41.7 and 36.9 and 35.3 and 33.1 and 40.0 and 45.0 and 41.5
- Body weight ([2]; 5mpk PO, week 18, 5 mg/kg, mean): 39.1
- Body weight ([2]; 5mpk PO, week 19, 5 mg/kg): 43.5 and 38.6 and 37.3 and 34.8 and 41.8 and 47.5 and 43.3
- Body weight ([2]; 5mpk PO, week 19, 5 mg/kg, mean): 41.0
- Body weight ([2]; 5mpk PO, week 20, 5 mg/kg): 45.7 and 40.4 and 39.5 and 37.0 and 43.5 and 51.0 and 45.4
- Body weight ([2]; 5mpk PO, week 20, 5 mg/kg, mean): 43.2
- Body weight ([2]; 5mpk PO, week 21, 5 mg/kg): 44.4 and 40.2 and 39.8 and 36.4 and 42.4 and 50.0 and 45.2
- Body weight ([2]; 5mpk PO, week 21, 5 mg/kg, mean): 42.6
- Body weight ([2]; 10mpk PO, week 12 (2021.04.26), 10 mg/kg): 26.6 and 29.1
- Body weight ([2]; 10mpk PO, week 13, 10 mg/kg): 29.9 and 31.2
- Body weight ([2]; 10mpk PO, week 14, 10 mg/kg): 31.8 and 32.6
- Body weight ([2]; 10mpk PO, week 15, 10 mg/kg): 34.0 and 33.3 and 29.5
- Body weight ([2]; 10mpk PO, week 16, 10 mg/kg): 36.3 and 34.1 and 30.0
- Body weight ([2]; 10mpk PO, week 17, 10 mg/kg): 36.6 and 35.0 and 29.8
- Body weight ([2]; 10mpk PO, week 18, 10 mg/kg): 35.5 and 37.1
- Body weight ([2]; 10mpk PO, week 19, 10 mg/kg): 34.6 and 39.9
- Body weight ([2]; 10mpk PO, week 20, 10 mg/kg): 35.7 and 43.1
- Body weight ([2]; 10mpk PO, week 21, 10 mg/kg): 36.0 and 43.2
- food intake [3]: no significant difference
- Sirius red staining (fibrotic area), Average ([4]; 11c 5 mpk): 3.015
- Sirius red staining (fibrotic area), individual mouse ([4]; 11c 5 mpk): 3.008 and 1.579 and 3.604 and 3.231 and 3.651
- Sirius red staining (fibrotic area), Average ([4]; 11c 10mpk): 3.818
- Sirius red staining (fibrotic area), individual mouse ([4]; 11c 10mpk): 2.883 and 3.981 and 4.409 and 4.507 and 3.312
- collagen accumulation in liver tissue (Sirius red staining) ([4]; CDAHFD-fed 11c vs CDAHFD-fed vehicle group): significant decrease
- remaining at 4 h [5]: > 98.6%
- inhibition at 10 µM [6]: 26.3%
- IC50 [7]: > 100 µM
